According to PubChem BioAssay (NCI):
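All cell lines were grown in 96-well plates and treated with compound for 48 hours. TGI: total growth inhibition.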

How the values were obtained:
Experiment in all cases: DTP human tumour cell line panel, 48 h
786-0 renal = test system: 786-0 renal
A549 NSCLC = test system: A549 NSCLC
ACHN renal = test system: ACHN renal
CAKI-1 renal = test system: CAKI-1 renal
COLO 205 colon = test system: COLO 205 colon
DLD-1 colon = test system: DLD-1 colon
DMS 114 small cell lung = test system: DMS 114 small cell lung
DMS 273 small cell lung = test system: DMS 273 small cell lung
EKVX NSCLC = test system: EKVX NSCLC
HCC-2998 colon = test system: HCC-2998 colon
HCT-116 colon = test system: HCT-116 colon
HCT-15 colon = test system: HCT-15 colon
HOP-18 NSCLC = test system: HOP-18 NSCLC
HOP-62 NSCLC = test system: HOP-62 NSCLC
IGROV1 ovarian = test system: IGROV1 ovarian
K-562 leukemia = test system: K-562 leukemia
KM12 colon = test system: KM12 colon
KM20L2 colon = test system: KM20L2 colon
LOX IMVI melanoma = test system: LOX IMVI melanoma
LXFL 529 NSCLC = test system: LXFL 529 NSCLC
M14 melanoma = test system: M14 melanoma
M19-MEL melanoma = test system: M19-MEL melanoma
MALME-3M melanoma = test system: MALME-3M melanoma
MOLT-4 leukemia = test system: MOLT-4 leukemia
NCI-H226 lung = test system: NCI-H226 lung
NCI-H23 lung = test system: NCI-H23 lung
NCI-H522 lung = test system: NCI-H522 lung
OVCAR-3 ovarian = test system: OVCAR-3 ovarian
OVCAR-4 ovarian = test system: OVCAR-4 ovarian
OVCAR-5 ovarian = test system: OVCAR-5 ovarian
OVCAR-8 ovarian = test system: OVCAR-8 ovarian
RPMI-8226 leukemia = test system: RPMI-8226 leukemia
RXF 393 renal = test system: RXF 393 renal
SF-268 CNS = test system: SF-268 CNS
SF-295 CNS = test system: SF-295 CNS
SF-539 CNS = test system: SF-539 CNS
SK-MEL-2 melanoma = test system: SK-MEL-2 melanoma
SK-MEL-28 melanoma = test system: SK-MEL-28 melanoma
SK-MEL-5 melanoma = test system: SK-MEL-5 melanoma
SN12C renal = test system: SN12C renal
SNB-19 CNS = test system: SNB-19 CNS
SNB-75 CNS = test system: SNB-75 CNS
SR leukemia = test system: SR leukemia
SW-620 colon = test system: SW-620 colon
TK-10 renal = test system: TK-10 renal
U251 CNS = test system: U251 CNS
UACC-257 melanoma = test system: UACC-257 melanoma
UACC-62 melanoma = test system: UACC-62 melanoma
UO-31 renal = test system: UO-31 renal
XF 498 CNS = test system: XF 498 CNS
A498 renal = test system: A498 renal
CCRF-CEM leukemia = test system: CCRF-CEM leukemia
HL-60(TB) leukemia = test system: HL-60(TB) leukemia
HOP-92 NSCLC = test system: HOP-92 NSCLC
HT29 colon = test system: HT29 colon
NCI-H460 lung = test system: NCI-H460 lung
SK-OV-3 ovarian = test system: SK-OV-3 ovarian
SNB-78 CNS = test system: SNB-78 CNS

Measured: TGI

O=C(c1ccccc1)c1nc2ccc(Cl)cc2c2c1Cc1ccccc1-2
not listed: A498 renal | CCRF-CEM leukemia | HL-60(TB) leukemia | HOP-92 NSCLC | HT29 colon | NCI-H460 lung | SK-OV-3 ovarian | SNB-78 CNS
> 100 µM: all other assays above

CC1=Nn2c(nnc2-c2ccc(Cl)cc2)NC(C)(C)C1
not listed: HCT-116 colon | OVCAR-8 ovarian | RXF 393 renal | SN12C renal | SNB-75 CNS | SR leukemia
> 100 µM: all other assays above
